# Experimental data from US10150765B2, “P2X7 modulators” (Janssen Pharmaceutica NV, priority 2013, dated 2018).
# Target: P2X7 (Homo sapiens (Human), UniProt Q99572)
# Assay: P2X7 antagonism in human PBMCs (LPS + Bz-ATP induced IL-1β release, ELISA)
# Type: cell-based
# Settings: 10 μM compound, LPS 30 ng/ml + 0.5 mM Bz-ATP
# Experimental: Human blood was collected using a blood donor program. PBMCs were isolated from blood using a Ficoll density gradient technique. Briefly, blood was laid on Ficoll solution and centrifuged at RT for 20 minutes at 2000 rpm. The buffy layer (between red blood cells and plasma) was carefully collected by aspiration, washed with PBS and centrifuged again at 1500 rpm for 15 minutes. The resulting cell pellet was washed and plated on 96 well-plates for experiments. […] Lipopolysaccharide (LPS) (30 ng/ml) was added to each well and incubated for 1 hour. Test compounds were then added and incubated for 30 minutes. The P2X7 agonist, 2′(3′)-O-(4-benzoylbenzoyl) adenosine 5′ triphosphate (Bz-ATP) was then added at a final concentration of 0.5 mM (PBMC) or 1 mM (blood). Cells were incubated for an additional 1.5 hours. At that point, supernatant was collected and stored for IL-1β assay using manufacturer's protocol for enzyme-linked immunosorbent assay (ELISA). Data was expressed as percent control, where control is defined as the difference in IL-1β release in LPS+Bz-ATP samples and LPS only samples. Data was plotted as response (% control) versus concentration to generate IC50 values.
# Sequence of P2X7 (Q99572 whole entry): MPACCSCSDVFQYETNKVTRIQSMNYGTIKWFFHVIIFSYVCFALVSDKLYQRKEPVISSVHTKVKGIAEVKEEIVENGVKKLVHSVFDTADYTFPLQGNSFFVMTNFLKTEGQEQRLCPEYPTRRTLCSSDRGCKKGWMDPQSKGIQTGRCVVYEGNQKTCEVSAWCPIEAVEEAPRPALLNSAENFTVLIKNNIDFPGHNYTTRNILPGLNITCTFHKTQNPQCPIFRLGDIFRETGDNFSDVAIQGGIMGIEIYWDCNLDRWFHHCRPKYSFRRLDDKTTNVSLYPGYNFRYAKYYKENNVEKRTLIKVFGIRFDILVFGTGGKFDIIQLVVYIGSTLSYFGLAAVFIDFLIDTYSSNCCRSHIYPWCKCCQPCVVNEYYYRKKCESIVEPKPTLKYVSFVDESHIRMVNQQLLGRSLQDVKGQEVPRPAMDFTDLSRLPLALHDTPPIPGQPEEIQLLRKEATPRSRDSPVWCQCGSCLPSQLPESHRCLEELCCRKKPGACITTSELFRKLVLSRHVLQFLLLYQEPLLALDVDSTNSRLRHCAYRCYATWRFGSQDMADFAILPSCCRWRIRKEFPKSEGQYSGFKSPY
row,SMILES,PBMC 10 μM (% control)
1,"C[C@@H]1c2ncn(-c3ccccn3)c2CCN1C(=O)c1cccc(C(F)(F)F)c1F (single isomer, unassigned) [Example 42, (4R*)-5-{[2-Fluoro-3-(trifluoromethyl)phenyl]carbonyl}-4-methyl-1-pyridin-2-yl-4,5,6,7-tetrahydro-1H-imidazo[4,5-c]pyridine]",5.8 % control
2,"Cc1nc(-n2nnc3c2CCN(C(=O)c2cccc(C(F)(F)F)c2Cl)C3C)ncc1F (single isomer, unassigned) [Example 306, (S*)-(2-chloro-3-(trifluoromethyl)phenyl)(1-(5-fluoro-4-methylpyrimidin-2-yl)-4-methyl-6,7-dihydro-1H-[1,2,3]triazolo[4,5-c]pyridin-5(4H)-yl)methanone]",2.5 % control
3,"Cc1cc(C)nc(-n2nnc3c2CCN(C(=O)c2cccc(C(F)(F)F)c2Cl)C3C)n1 (stereo not drawn) [Example 253, (2-Chloro-3-(trifluoromethyl)phenyl)(1-(4,6-dimethylpyrimidin-2-yl)-4-methyl-6,7-dihydro-1H-[1,2,3]triazolo[4,5-c]pyridin-5(4H)-yl)methanone]",−2.6 % control
4,"CC1c2nnn(-c3ncccn3)c2CCN1C(=O)c1ccc(Cl)cc1Cl (stereo not drawn) [Example 283, (2,4-dichlorophenyl)(4-methyl-1-(pyrimidin-2-yl)-6,7-dihydro-1H-[1,2,3]triazolo[4,5-c]pyridin-5(4H)-yl)methanone]",−6.3 % control
5,"C[C@@H]1c2nnn(-c3ccc(F)cc3)c2C[C@H](C)N1C(=O)c1cccc(C(F)(F)F)c1Cl [Example 287, (2-chloro-3-(trifluoromethyl)phenyl)((4R,6 S)-1-(4-fluorophenyl)-4,6-dimethyl-6,7-dihydro-1H-[1,2,3]triazolo[4,5-c]pyridin-5(4H)-yl)methanone]",−4.1 % control
6,"CC1c2nn(COCC[Si](C)(C)C)c(-c3ncc(F)cn3)c2CCN1C(=O)c1cccc(C(F)(F)F)c1Cl (stereo not drawn) [Example 303, (2-chloro-3-(trifluoromethyl)phenyl)(3-(5-fluoropyrimidin-2-yl)-7-methyl-2-((2-(trimethylsilyl)ethoxy)methyl)-4,5-dihydro-2H-pyrazolo[3,4-c]pyridin-6(7H)-yl)methanone]",−1.6 % control
